Values joined by “and” are separate entries in the source; they are usually repeats but may differ in a detail not shown here. Equal values may be shown once. Read-outs that look alike come from different tables or passages of the source. Where a SMILES comes first, the peptide text is derived from it. Bridges are numbered along the chain shown (N, C = ends). [ ]: non-standard residue; d: D form. Nle = CCCC[C@H](N)C(=O)O
Experiments:
human Kv1.2 = target: T1, human Kv1.2 (Homo sapiens, UniProt P16389); assay: cell-based; conditions: ratio of patch clamp IC50 values
T1 construct: expressed in transfected cells; host or cells: CHO

Rat whole blood = Rat whole blood (Rattus norvegicus, UniProt P15384); format: cell-based; conditions: IL-17A release, thapsigargin, 24 Hr, at least 2 replicates
human Kv1.1 = target: T2, human Kv1.1 (Homo sapiens, UniProt Q09470); assay: cell-based; conditions: ratio of patch clamp IC50 values
T2 construct: expressed in transfected cells; host or cells: CHO

[1] = tested on: KLH ear inflammation model in rats; format: in vivo, rat; conditions: +/− SD
human Kv1.6 = target: T3, human Kv1.6 (Homo sapiens, UniProt P17658); assay: cell-based; conditions: ratio of patch clamp IC50 values
T3 construct: expressed in transfected cells; host or cells: CHO

[2] = tested on: Human peripheral blood mononuclear cells (PBMCs); format: cell-based; conditions: geometric mean, at least 6 replicates, Example 5b; read-out: anti-CD3 PBMC/IL-2 IC50
Protocol: Human peripheral blood mononuclear cells (PBMCs) were used to assess the effects of Kv1.3 blocker reference compounds on T-cell activation as determined by IL-2 release after stimulation with anti-CD3.
Human PBMCs were obtained from Precision for Medicine (Frederick, MD). Cells from 5 donors were used. Plate-bound anti-CD3 was used to stimulate bulk T cells in the PBMC preparations. Briefly, 96-well plates were coated with anti-CD3 antibody for app. 16 hours at 5° C., using 50 μl of a 1 μg/ml anti-CD3 solution diluted in PBS. Thereafter the plates were washed twice.
Kv1.3 blockers were subsequently diluted in medium (RPMI 1640 with Glutamax-I containing, 10% v/v Fetal Bovine Serum, 1% v/v penicillin-streptomycin Solution) and added in a volume of 50 μl. The compounds indicated in Table 8b were used at concentrations ranging from 0.3 pM to 1000 nM (half log dilutions, starting concentrations varying).
Finally, 50.000 PBMCs in the same medium were added to each well in a volume of 50 μl, giving a final volume of 100 μl per well. The plates were incubated for 20-24 hours in a 37° C./5% CO2 incubator. After centrifugation of the plates, 25 μl supernatant was transferred to IL-2 detection plates (MSD Human IL-2 Tissue Culture Kit, cat #K151AHB-2) and IL-2 was measures as described by the manufacturer (Meso Scale Discovery, Rockville, Maryland, USA).
All values derive from at least 6 replicates.

human Kv1.3 = target: T4, human Kv1.3 (Homo sapiens, UniProt P22001); assay: cell-based; conditions: CHO cells, QPatch whole-cell; read-out: Potency IC50 Kv1.3
T4 construct: expressed in transfected cells; host or cells: CHO

[3] = 50 nmol/kg SC 24 hrs prior to KLH ear challenge
[4] = 70 nmol/kg SC 24 hrs prior to KLH ear challenge

Rat whole blood, sequence (P15384 whole entry): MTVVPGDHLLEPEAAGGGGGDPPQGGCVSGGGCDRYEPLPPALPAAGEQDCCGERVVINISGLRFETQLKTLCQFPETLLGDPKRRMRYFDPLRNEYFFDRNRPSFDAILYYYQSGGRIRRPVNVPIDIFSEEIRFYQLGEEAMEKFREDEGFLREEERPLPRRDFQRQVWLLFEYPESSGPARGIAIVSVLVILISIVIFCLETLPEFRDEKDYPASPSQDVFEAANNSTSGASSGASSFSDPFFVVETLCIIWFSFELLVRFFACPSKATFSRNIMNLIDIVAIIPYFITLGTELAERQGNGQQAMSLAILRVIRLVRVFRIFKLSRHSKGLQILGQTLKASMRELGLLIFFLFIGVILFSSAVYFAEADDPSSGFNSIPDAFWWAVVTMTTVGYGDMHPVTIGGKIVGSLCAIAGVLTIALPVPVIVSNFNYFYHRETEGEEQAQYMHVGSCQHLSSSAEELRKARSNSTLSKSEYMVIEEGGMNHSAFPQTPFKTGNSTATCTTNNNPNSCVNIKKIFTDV
T1 sequence (P16389 whole entry): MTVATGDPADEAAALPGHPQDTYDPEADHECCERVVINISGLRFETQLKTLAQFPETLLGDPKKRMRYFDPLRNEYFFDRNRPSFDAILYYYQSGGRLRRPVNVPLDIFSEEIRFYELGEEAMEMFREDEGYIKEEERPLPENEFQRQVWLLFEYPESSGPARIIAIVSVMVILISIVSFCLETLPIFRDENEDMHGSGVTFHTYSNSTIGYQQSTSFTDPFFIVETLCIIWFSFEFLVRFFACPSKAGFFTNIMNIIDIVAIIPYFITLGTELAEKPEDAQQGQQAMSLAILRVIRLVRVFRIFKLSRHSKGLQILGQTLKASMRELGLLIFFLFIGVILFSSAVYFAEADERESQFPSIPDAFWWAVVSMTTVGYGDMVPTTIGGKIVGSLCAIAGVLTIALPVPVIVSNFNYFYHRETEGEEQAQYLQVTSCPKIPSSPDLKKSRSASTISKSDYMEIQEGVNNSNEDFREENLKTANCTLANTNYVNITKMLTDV
T2 sequence (Q09470 whole entry): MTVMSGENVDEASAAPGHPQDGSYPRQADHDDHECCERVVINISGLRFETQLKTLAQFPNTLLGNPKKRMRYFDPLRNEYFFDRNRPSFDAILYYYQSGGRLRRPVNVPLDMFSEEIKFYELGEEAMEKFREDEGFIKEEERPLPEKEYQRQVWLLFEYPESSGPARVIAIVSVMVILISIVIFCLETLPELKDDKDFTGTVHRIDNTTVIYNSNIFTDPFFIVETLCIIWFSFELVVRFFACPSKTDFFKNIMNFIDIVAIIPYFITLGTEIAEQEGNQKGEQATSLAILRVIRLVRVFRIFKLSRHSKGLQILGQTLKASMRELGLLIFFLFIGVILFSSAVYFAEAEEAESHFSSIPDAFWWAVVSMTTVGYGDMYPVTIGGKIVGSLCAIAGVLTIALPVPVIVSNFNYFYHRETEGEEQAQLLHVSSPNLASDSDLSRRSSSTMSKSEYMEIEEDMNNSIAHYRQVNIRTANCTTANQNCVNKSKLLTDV
T3 sequence (P17658 whole entry): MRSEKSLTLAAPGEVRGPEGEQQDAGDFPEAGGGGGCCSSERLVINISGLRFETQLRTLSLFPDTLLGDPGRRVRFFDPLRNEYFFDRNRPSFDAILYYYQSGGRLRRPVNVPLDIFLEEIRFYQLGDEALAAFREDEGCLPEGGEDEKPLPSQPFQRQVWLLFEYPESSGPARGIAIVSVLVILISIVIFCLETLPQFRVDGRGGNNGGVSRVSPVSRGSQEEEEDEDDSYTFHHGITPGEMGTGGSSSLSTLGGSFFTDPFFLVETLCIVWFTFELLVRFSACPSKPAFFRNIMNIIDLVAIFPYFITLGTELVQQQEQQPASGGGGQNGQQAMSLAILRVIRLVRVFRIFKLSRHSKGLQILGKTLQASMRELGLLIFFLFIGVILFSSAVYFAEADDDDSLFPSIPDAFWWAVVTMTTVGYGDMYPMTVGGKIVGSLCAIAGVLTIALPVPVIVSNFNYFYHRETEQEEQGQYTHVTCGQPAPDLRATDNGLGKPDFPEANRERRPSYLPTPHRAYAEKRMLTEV
T4 sequence (P22001 whole entry): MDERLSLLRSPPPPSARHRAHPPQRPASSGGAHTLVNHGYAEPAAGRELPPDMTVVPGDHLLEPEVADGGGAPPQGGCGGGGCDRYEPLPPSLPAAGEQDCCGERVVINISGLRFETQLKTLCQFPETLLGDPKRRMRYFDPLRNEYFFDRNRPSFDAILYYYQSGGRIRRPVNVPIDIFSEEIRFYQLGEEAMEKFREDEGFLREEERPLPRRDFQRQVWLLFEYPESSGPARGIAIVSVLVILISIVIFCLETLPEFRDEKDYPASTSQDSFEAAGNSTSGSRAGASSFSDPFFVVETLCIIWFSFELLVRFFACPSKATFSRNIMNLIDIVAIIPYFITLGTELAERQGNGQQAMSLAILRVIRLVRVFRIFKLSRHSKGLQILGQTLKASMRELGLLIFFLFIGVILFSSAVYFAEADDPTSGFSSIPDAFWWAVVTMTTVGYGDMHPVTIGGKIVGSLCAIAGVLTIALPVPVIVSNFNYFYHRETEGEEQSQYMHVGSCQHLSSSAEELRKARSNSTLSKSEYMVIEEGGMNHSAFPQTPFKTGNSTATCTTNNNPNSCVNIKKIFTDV

## CC[C@H](C)[C@@H]1NC(=O)[C@H](C)NC(=O)[C@H](CCCCN)NC(=O)[C@H](CC(C)C)NC(=O)[C@@H]2CSSC[C@@H](C(=O)N[C@@H](Cc3ccc(O)cc3)C(=O)N3CCC[C@H]3C(=O)N[C@@H](CCCNC(=N)N)C(=O)O)NC(=O)[C@H](CCCCN)NC(=O)[C@@H]3CSSC[C@H](NC(=O)[C@H](CCC(=O)O)NC(=O)[C@H](C(C)C)NC(=O)[C@H](CO)NC(=O)[C@H](C)NC(=O)[C@H](CO)NC(=O)[C@@H](NC(=O)[C@H](CCCNC(=N)N)NC(=O)[C@H](CCSC)NC(=O)[C@H](CC(=O)O)NC(=O)[C@H](CCSC)NC(=O)[C@@H](N)CC(N)=O)CSSC[C@H](NC(=O)[C@H](CCCCN)NC(=O)CNC(=O)[C@H](Cc4ccccc4)NC(=O)[C@H]([C@@H](C)CC)NC(=O)[C@H](CO)NC(=O)CNC1=O)C(=O)N[C@@H](CCSC)C(=O)N[C@@H](CC(N)=O)C(=O)N[C@@H](CCCCN)C(=O)N[C@@H](CCCCN)C(=O)N3)C(=O)N[C@@H](CCCCN)C(=O)N[C@@H](CCC(N)=O)C(=O)N[C@@H](CCCCN)C(=O)N2 [compound 17] (H-NMDMRCSASVECKQKCLKAIGSIFGKCMNKKCKCYPR-OH; disulfide 6-27, 12-32, 16-34)
Human Kv1.2
  Selectivity ratio Kv1.2/Kv1.3: 1540
Rat whole blood
  IC50: 1 nM
Human Kv1.1
  Selectivity ratio Kv1.1/Kv1.3: >11300
[1]; [3]
  % inhibition of ear thickness (AUC of Δ ear thickness 0-48 hours): 37.3 (+/−13.8) %
[1]; [4]
  % inhibition of ear thickness (AUC of Δ ear thickness 0-48 hours): 38.8 (+/−9.7) % and 25.0 (+/−12.5) %
Human Kv1.6
  Selectivity ratio Kv1.6/Kv1.3: >11300
[2]
  IC50: 0.06 nM

## CC[C@H](C)[C@@H]1NC(=O)[C@H](C)NC(=O)[C@H](CCCCN)NC(=O)[C@H](CC(C)C)NC(=O)[C@@H]2CSSC[C@@H](C(=O)N[C@@H](Cc3ccc(O)cc3)C(=O)N3CCC[C@H]3C(=O)N[C@@H](CCCNC(=N)N)C(N)=O)NC(=O)[C@H](CCCCN)NC(=O)[C@@H]3CSSC[C@H](NC(=O)[C@H](CCC(=O)O)NC(=O)[C@H](C(C)C)NC(=O)[C@H](CO)NC(=O)[C@H](C)NC(=O)[C@H](CCCCN)NC(=O)[C@@H](NC(=O)[C@H](CCCNC(=N)N)NC(=O)[C@H](CCSC)NC(=O)[C@H](CC(=O)O)NC(=O)[C@H](CCSC)NC(=O)[C@@H](N)CC(N)=O)CSSC[C@H](NC(=O)[C@H](CCCCN)NC(=O)CNC(=O)[C@H](Cc4ccccc4)NC(=O)[C@H]([C@@H](C)CC)NC(=O)[C@H](CO)NC(=O)CNC1=O)C(=O)N[C@@H](CCSC)C(=O)N[C@@H](CC(N)=O)C(=O)N[C@@H](CCCCN)C(=O)N[C@@H](CCCCN)C(=O)N3)C(=O)N[C@@H](CCCCN)C(=O)N[C@@H](CCC(N)=O)C(=O)N[C@@H](CCCCN)C(=O)N2 [compound 29] (H-NMDMRCKASVECKQKCLKAIGSIFGKCMNKKCKCYPR-NH2; disulfide 6-27, 12-32, 16-34)
Human Kv1.3
  IC50: 0.09 nM
Human Kv1.2
  Selectivity ratio Kv1.2/Kv1.3: 761
Human Kv1.1
  Selectivity ratio Kv1.1/Kv1.3: >34200
Human Kv1.6
  Selectivity ratio Kv1.6/Kv1.3: 4144

## CCCC[C@H](NC(=O)[C@H](CC(=O)O)NC(=O)[C@H](CCCC)NC(=O)[C@@H](N)CO)C(=O)N[C@@H](CCCNC(=N)N)C(=O)N[C@H]1CSSC[C@@H]2NC(=O)[C@H](CCCCN)NC(=O)CNC(=O)[C@H](Cc3ccccc3)NC(=O)[C@H]([C@@H](C)CC)NC(=O)[C@H](CO)NC(=O)CNC(=O)[C@H]([C@@H](C)CC)NC(=O)[C@H](C)NC(=O)[C@H](CCCCN)NC(=O)[C@H](CC(C)C)NC(=O)[C@@H]3CSSC[C@@H](C(=O)N[C@@H](Cc4ccc(O)cc4)C(=O)N4CCC[C@H]4C(=O)N[C@@H](CCCNC(=N)N)C(N)=O)NC(=O)[C@H](CCCNC(=N)N)NC(=O)[C@H](CSSC[C@H](NC(=O)[C@H](CCC(=O)O)NC(=O)[C@H](C(C)C)NC(=O)[C@H](CO)NC(=O)[C@H](C)NC(=O)[C@H](CO)NC1=O)C(=O)N[C@@H](CCCCN)C(=O)N[C@@H](CCC(N)=O)C(=O)N[C@@H](CCCCN)C(=O)N3)NC(=O)[C@H](CCCCN)NC(=O)[C@H](CCCCN)NC(=O)[C@H](CC(N)=O)NC(=O)[C@H](CCSC)NC2=O [compound 75] (H-S[Nle]D[Nle]RCSASVECKQKCLKAIGSIFGKCMNKKCRCYPR-NH2; disulfide 6-27, 12-32, 16-34)
Human Kv1.3
  IC50: 0.13 nM
Rat whole blood
  IC50: 0.86 nM

## CC[C@H](C)[C@@H]1NC(=O)[C@H](C)NC(=O)[C@H](CCCCN)NC(=O)[C@H](CC(C)C)NC(=O)[C@@H]2CSSC[C@@H](C(=O)N[C@@H](Cc3ccc(O)cc3)C(=O)N3CCC[C@H]3C(=O)N[C@@H](CCCNC(=N)N)C(=O)O)NC(=O)[C@H](CCCCN)NC(=O)[C@@H]3CSSC[C@H](NC(=O)[C@H](CCC(=O)O)NC(=O)[C@H](C(C)C)NC(=O)[C@H](CO)NC(=O)[C@H](C)NC(=O)[C@H](CO)NC(=O)[C@@H](NC(=O)[C@H](CCCNC(=N)N)NC(=O)[C@H](CCSC)NC(=O)[C@H](CC(=O)O)NC(=O)[C@H](CCSC)NC(=O)[C@@H](N)CCC(N)=O)CSSC[C@H](NC(=O)[C@H](CCCCN)NC(=O)CNC(=O)[C@H](Cc4ccccc4)NC(=O)[C@H]([C@@H](C)CC)NC(=O)[C@H](CO)NC(=O)CNC1=O)C(=O)N[C@@H](CCSC)C(=O)N[C@@H](CC(N)=O)C(=O)N[C@@H](CCCCN)C(=O)N[C@@H](CCCCN)C(=O)N3)C(=O)N[C@@H](CCCCN)C(=O)N[C@@H](CCC(N)=O)C(=O)N[C@@H](CCCCN)C(=O)N2 [compound 15] (H-QMDMRCSASVECKQKCLKAIGSIFGKCMNKKCKCYPR-OH; disulfide 6-27, 12-32, 16-34)
Human Kv1.2
  Selectivity ratio Kv1.2/Kv1.3: 1364
Rat whole blood
  IC50: 0.17 nM
Human Kv1.1
  Selectivity ratio Kv1.1/Kv1.3: >7900
Human Kv1.6
  Selectivity ratio Kv1.6/Kv1.3: >7900
[2]
  IC50: 0.09 nM

## CCCC[C@H](NC(=O)[C@@H]1CCCN1)C(=O)N[C@@H](CC(=O)O)C(=O)N[C@@H](CCCC)C(=O)N[C@@H](CCCNC(=N)N)C(=O)N[C@H]1CSSC[C@@H]2NC(=O)[C@H](CCCCN)NC(=O)CNC(=O)[C@H](Cc3ccccc3)NC(=O)[C@H]([C@@H](C)CC)NC(=O)[C@H](CO)NC(=O)CNC(=O)[C@H]([C@@H](C)CC)NC(=O)[C@H](C)NC(=O)[C@H](CCCCN)NC(=O)[C@H](CC(C)C)NC(=O)[C@@H]3CSSC[C@@H](C(=O)N[C@@H](Cc4ccc(O)cc4)C(=O)N4CCC[C@H]4C(=O)N[C@@H](CCCNC(=N)N)C(N)=O)NC(=O)[C@H](CCCCN)NC(=O)[C@H](CSSC[C@H](NC(=O)[C@H](CCC(=O)O)NC(=O)[C@H](C(C)C)NC(=O)[C@H](CO)NC(=O)[C@H](C)NC(=O)[C@H](CO)NC1=O)C(=O)N[C@@H](CCCCN)C(=O)N[C@@H](CCC(N)=O)C(=O)N[C@@H](CCCCN)C(=O)N3)NC(=O)[C@H](CCCCN)NC(=O)[C@H](CCCCN)NC(=O)[C@H](CC(N)=O)NC(=O)[C@H](CCCC)NC2=O [compound 45] (H-P[Nle]D[Nle]RCSASVECKQKCLKAIGSIFGKC[Nle]NKKCKCYPR-NH2; disulfide 6-27, 12-32, 16-34)
Human Kv1.2
  Selectivity ratio Kv1.2/Kv1.3: 5362
Rat whole blood
  IC50: 0.98 nM
Human Kv1.1
  Selectivity ratio Kv1.1/Kv1.3: >17100
[1]; [3]
  % inhibition of ear thickness (AUC of Δ ear thickness 0-48 hours): 22.2 (+/−11.1) %
[1]; [4]
  % inhibition of ear thickness (AUC of Δ ear thickness 0-48 hours): 46.9 (+/−10.9) % and 27.7 (+/−11.5) %
[1]; 100 nmol/kg SC 24 hrs prior to KLH ear challenge
  % inhibition of ear thickness (AUC of Δ ear thickness 0-48 hours): 41.9 (+/−12.5) %
Human Kv1.6
  Selectivity ratio Kv1.6/Kv1.3: >17100
[2]
  IC50: 0.03 nM

Source: patent US20240182531A1, “KV1.3 Blockers” (priority 2021, published 2024)
